Test results taken from ChEMBL document CHEMBL4483862, “Open-source discovery of chemical leads for next-generation chemoprotective antimalarials” (2018).

System: Plasmodium berghei
Experiment: Luciferase/luciferin-expressing antifolate-resistant parasites were used to infect a culture of HepG2 cells that were pre-incubated with compounds. Infected hepatocytes emit light due to the luciferase reaction. Assay results are presented as the percent inhibition of light emission compared to control. […]
Assay type: functional
Conditions: sporozoite; for IC90: read-out: LUCIFERASE INFECTION ASSAY - IC90

Row | Structure (SMILES) | IC90 [µM] | other results
1 | CCS(=O)(=O)N1Cc2ccccc2CC1C(=O)Nc1nc2ccc(F)cc2s1 (stereo not given) | > 10 | IC50 (PBLUC_HILL_SLOPE 0.63, PBLUC_R_SQUARED 0.752, read-out: LUCIFERASE INFECTION ASSAY - IC50): 2.29 µM
2 | OCc1ccc(-c2cn3c(-c4cccc(Cl)c4)cnc3cn2)cc1 | > 9.83 | IC50 (PBLUC_HILL_SLOPE 0.56, PBLUC_R_SQUARED 0.237, read-out: LUCIFERASE INFECTION ASSAY - IC50): > 9.83 µM
3 | CCCn1nc(C(=O)OCC(=O)c2cc(C)n(CC(F)(F)F)c2C)c2ccccc2c1=O | > 10 | IC50 (PBLUC_HILL_SLOPE 0.53, PBLUC_R_SQUARED 0.241, read-out: LUCIFERASE INFECTION ASSAY - IC50): > 10 µM
4 | COc1ccc(C)cc1CN1CCN(c2ccc(S(=O)(=O)NC(C)(C)C)cc2[N+](=O)[O-])CC1 | > 10 | IC50 (PBLUC_HILL_SLOPE 0.589, PBLUC_R_SQUARED 0.215, read-out: LUCIFERASE INFECTION ASSAY - IC50): > 10 µM
5 | CCOC(=O)c1c(/C=C/C(=O)Nc2nc(C)cs2)c(C)n(CC)c1C | > 10 | IC50 (PBLUC_HILL_SLOPE 0.644, PBLUC_R_SQUARED 0.0145, read-out: LUCIFERASE INFECTION ASSAY - IC50): > 10 µM
6 | O=C1C=CC(=O)N1c1ccccc1Oc1ccc(Cl)cc1Cl | > 9.88 | IC50 (PBLUC_HILL_SLOPE 0.641, PBLUC_R_SQUARED 0.0559, read-out: LUCIFERASE INFECTION ASSAY - IC50): > 9.88 µM
7 | O=C(Nc1ccc2nc(Cc3ccccc3)nn2c1)Nc1cccs1 | > 3.33 | IC50 (PBLUC_HILL_SLOPE 0.558, PBLUC_R_SQUARED 0.579, read-out: LUCIFERASE INFECTION ASSAY - IC50): 0.969 µM
8 | CCCN1CCN(C(=O)c2ccc(-c3ccc(C(C)=O)cc3)o2)CC1 | > 10 | IC50 (PBLUC_HILL_SLOPE 0.574, PBLUC_R_SQUARED 0.0124, read-out: LUCIFERASE INFECTION ASSAY - IC50): > 10 µM
9 | O=C(Nc1cnc2ccccc2c1)c1cccc(NC(=O)c2cccs2)c1 | > 10 | IC50 (PBLUC_HILL_SLOPE 0.461, PBLUC_R_SQUARED 0.664, read-out: LUCIFERASE INFECTION ASSAY - IC50): 0.217 µM
10 | O=C(NCCc1nc(-c2ccccc2)no1)c1cc2cc(Cl)ccc2o1 | > 8.97 | IC50 (PBLUC_HILL_SLOPE 0.5, PBLUC_R_SQUARED 0.259, read-out: LUCIFERASE INFECTION ASSAY - IC50): > 8.97 µM
11 | C#CCSc1nnc(-c2ccc(C(C)(C)C)cc2)n1-c1ccc(C(C)C)cc1 | > 8.47 | IC50 (PBLUC_HILL_SLOPE 0.5, PBLUC_R_SQUARED 0.648, read-out: LUCIFERASE INFECTION ASSAY - IC50): > 8.47 µM
12 | O=C(Cc1coc2cc3c(cc12)CCC3)OCc1nccn1C(F)F | > 10 | IC50 (PBLUC_HILL_SLOPE 0.616, PBLUC_R_SQUARED 0.411, read-out: LUCIFERASE INFECTION ASSAY - IC50): > 10 µM
13 | CC1CCN(C(=O)COC(=O)c2cc(-c3ccc(Cl)cc3)nc3ccccc23)c2ccccc2S1 (stereo not given) | > 10 | IC50 (PBLUC_HILL_SLOPE 0.574, PBLUC_R_SQUARED 0.62, read-out: LUCIFERASE INFECTION ASSAY - IC50): 2.73 µM
14 | COCCn1c(C(=O)OC)c(NC(=O)c2ccco2)c2cc(NCCc3ccccc3)cnc21 | > 7.14 | IC50 (PBLUC_HILL_SLOPE 0.526, PBLUC_R_SQUARED 0.429, read-out: LUCIFERASE INFECTION ASSAY - IC50): 4.07 µM
15 | O=C(O)c1c2c(nc3ccccc13)/C(=C/c1ccccc1Cl)CC2 | > 10 | IC50 (PBLUC_HILL_SLOPE 0.525, PBLUC_R_SQUARED 0.706, read-out: LUCIFERASE INFECTION ASSAY - IC50): 0.569 µM
16 | Cc1cc(Oc2c(C)cccc2C)c2ccccc2n1 | > 12.5 | IC50 (PBLUC_HILL_SLOPE 0.514, PBLUC_R_SQUARED 0.0638, read-out: LUCIFERASE INFECTION ASSAY - IC50): > 12.5 µM
17 | O=C(Nc1cccc(C(F)(F)F)c1)Nc1cnn(-c2ccc(Cl)cc2)c1C(F)(F)F | > 7.35 | IC50 (PBLUC_HILL_SLOPE 0.579, PBLUC_R_SQUARED 0.471, read-out: LUCIFERASE INFECTION ASSAY - IC50): 1.04 µM
18 | Fc1cccc(NC(=S)NN=C2CCCCCC2)c1 | > 11.8 | IC50 (PBLUC_HILL_SLOPE 0.519, PBLUC_R_SQUARED 0.189, read-out: LUCIFERASE INFECTION ASSAY - IC50): > 11.8 µM
19 | CN(C)CCCNc1cc(N(C)C)c(N)c2c1C(=O)c1ccccc1C2=O | > 9.01 | IC50 (PBLUC_HILL_SLOPE 0.553, PBLUC_R_SQUARED 0.182, read-out: LUCIFERASE INFECTION ASSAY - IC50): > 9.01 µM
20 | FC(F)(F)c1cccc(NC(=S)NC2CC3C=CC2C3)c1 (stereo not given) | > 10.6 | IC50 (PBLUC_HILL_SLOPE 0.542, PBLUC_R_SQUARED 0.315, read-out: LUCIFERASE INFECTION ASSAY - IC50): 4.71 µM

Row | Structure (SMILES) | IC90 [µM] | other results
21 | CCOC(=O)c1c(Sc2ccccc2)cnn1C(=O)Nc1cccc(Cl)c1 | > 8.21 | IC50 (PBLUC_HILL_SLOPE 0.46, PBLUC_R_SQUARED 0.851, read-out: LUCIFERASE INFECTION ASSAY - IC50): > 8.21 µM
22 | COC(=O)C1=C(Sc2ccc(Cl)cc2)CSC1 | > 11.5 | IC50 (PBLUC_HILL_SLOPE 0.458, PBLUC_R_SQUARED 0.122, read-out: LUCIFERASE INFECTION ASSAY - IC50): > 11.5 µM
23 | Cc1cc(-c2nc(=O)c3ccccc3[nH]2)c(C)n1-c1cccc(S(=O)(=O)N2CCOCC2)c1 | > 10 | IC50 (PBLUC_HILL_SLOPE 0.619, PBLUC_R_SQUARED 0.0201, read-out: LUCIFERASE INFECTION ASSAY - IC50): > 10 µM
24 | CCc1cccc2c(/C=C(/C(=O)NCc3ccccn3)c3nc4ccccc4[nH]3)c[nH]c12 | > 10 | IC50 (PBLUC_HILL_SLOPE 0.583, PBLUC_R_SQUARED 0.274, read-out: LUCIFERASE INFECTION ASSAY - IC50): > 10 µM
25 | Cc1ccc(NC(=O)c2[nH]nc3c2CCCC3)cc1Cl | > 2 | IC50 (PBLUC_HILL_SLOPE 0.552, PBLUC_R_SQUARED 0.432, read-out: LUCIFERASE INFECTION ASSAY - IC50): 0.0735 µM
26 | O=S(=O)(c1ccc(C(F)(F)F)cn1)c1cccs1 | > 11.3 | IC50 (PBLUC_HILL_SLOPE 0.531, PBLUC_R_SQUARED 0.132, read-out: LUCIFERASE INFECTION ASSAY - IC50): > 11.3 µM
27 | CCCN(CCC)C(=S)NC(=O)c1cccc([N+](=O)[O-])c1 | > 10.7 | IC50 (PBLUC_HILL_SLOPE 0.519, PBLUC_R_SQUARED 0.204, read-out: LUCIFERASE INFECTION ASSAY - IC50): > 10.7 µM
28 | CC(C)(C)CC(=O)Nc1ccc2nc(-c3cccs3)nn2c1 | > 10 | IC50 (PBLUC_HILL_SLOPE 0.64, PBLUC_R_SQUARED 0.361, read-out: LUCIFERASE INFECTION ASSAY - IC50): 2.36 µM
29 | Cc1cc(/C=C(\C#N)C(=O)OCc2ccccn2)c(C)n1CC(C)C | > 10 | IC50 (PBLUC_HILL_SLOPE 0.483, PBLUC_R_SQUARED 0.335, read-out: LUCIFERASE INFECTION ASSAY - IC50): 6.62 µM
30 | CCOC(=O)c1c(NC(=O)Cn2c(=O)c(C#N)c3n(c2=O)CCC3)sc(C)c1CC | > 10 | IC50 (PBLUC_HILL_SLOPE 0.645, PBLUC_R_SQUARED 0.0864, read-out: LUCIFERASE INFECTION ASSAY - IC50): > 10 µM
31 | O=C(NCC1CC1)Nc1csc(Cc2c(Cl)cccc2Cl)n1 | > 9.26 | IC50 (PBLUC_HILL_SLOPE 0.58, PBLUC_R_SQUARED 0.694, read-out: LUCIFERASE INFECTION ASSAY - IC50): > 9.26 µM
32 | Cc1cc(=O)oc2cc(OCc3ccc(C(=O)Nc4nc5ccccc5[nH]4)cc3)ccc12 | > 10 | IC50 (PBLUC_HILL_SLOPE 0.6, PBLUC_R_SQUARED 0.47, read-out: LUCIFERASE INFECTION ASSAY - IC50): 3.19 µM
33 | CN1CCN(c2ccc(-c3cn4c(-c5ccccc5Cl)cnc4cn3)cn2)CC1 | > 8.15 | IC50 (PBLUC_HILL_SLOPE 0.491, PBLUC_R_SQUARED 0.57, read-out: LUCIFERASE INFECTION ASSAY - IC50): 3.67 µM
34 | COc1ccc(CCNC(=O)c2ccc3cc[nH]c3c2)cc1 | > 11.2 | IC50 (PBLUC_HILL_SLOPE 0.599, PBLUC_R_SQUARED 0.245, read-out: LUCIFERASE INFECTION ASSAY - IC50): 4.75 µM
35 | COc1cccc(C(=O)N(c2nc3ccccc3s2)c2c(C)cccc2C)c1 | > 10 | IC50 (PBLUC_HILL_SLOPE 0.58, PBLUC_R_SQUARED 0.199, read-out: LUCIFERASE INFECTION ASSAY - IC50): > 10 µM
36 | O=C(CCc1ccc2c(c1)OCO2)Nc1nc(-c2ccc(Br)s2)cs1 | > 10 | IC50 (PBLUC_HILL_SLOPE 0.607, PBLUC_R_SQUARED 0.509, read-out: LUCIFERASE INFECTION ASSAY - IC50): 5.99 µM
37 | CN(C)CC(C)(C)CNc1nn2cc(-c3ccccc3)nc2s1 | > 10 | IC50 (PBLUC_HILL_SLOPE 0.619, PBLUC_R_SQUARED 0.654, read-out: LUCIFERASE INFECTION ASSAY - IC50): 0.732 µM
38 | C=c1onc(-c2c(F)cccc2Cl)c1=C1NC(c2cc(C(F)(F)F)cc(C(F)(F)F)c2)=NO1 | > 6.71 | IC50 (PBLUC_HILL_SLOPE 0.442, PBLUC_R_SQUARED 0.157, read-out: LUCIFERASE INFECTION ASSAY - IC50): > 6.71 µM
39 | Cc1ccc2nc(NC(=O)c3ccc(F)c(F)c3)c(C(=O)NCC(C)C)n2c1 | > 8.54 | IC50 (PBLUC_HILL_SLOPE 0.472, PBLUC_R_SQUARED 0.144, read-out: LUCIFERASE INFECTION ASSAY - IC50): > 8.54 µM
40 | COc1ccc(/C=N/OCC(=O)Nc2ccccc2C(F)(F)F)cc1 | > 10 | IC50 (PBLUC_HILL_SLOPE 0.525, PBLUC_R_SQUARED 0.458, read-out: LUCIFERASE INFECTION ASSAY - IC50): > 10 µM
